# Data as given in patent publication US20150079207A1, “Method for manufacturing Smilax China L root extract having increased active ingredients and beverage composition containing the extract fordetoxification” (priority 2013, published 2015).
# Experiments:
# Assay type in all cases: cell-based
# [1] = tested on: HepG2 cells; assay: Inhibition of formation of oxidatively damaged adducts caused by nicotine (DCFH-DA assay); conditions: 50, 100, 250 μM (mixture 50, 100 μM) 2 h, then nicotine at IC50 24 h
# From the text: When non-polar, uncharged DCFH-DA easily enters the cytoplasm through cell membranes, DCFH-DA is converted into 2′,7′-dichlorofluorescin (DCFH) showing no fluorescence by an intracellular enzyme, esterase, and DCFH is then oxidized into 2′,7′-dichlorofluorescein (DCF) showing fluorescence by various active oxygen produced in the cells. Since the measured fluorescence intensity is in proportion to a degree of intracellular oxidation, an effect of the index materials on oxidative damage of liver cells by nicotine was evaluated using the principle.
# (§1) Thereafter, the experimental groups and the control were treated with nicotine at an IC50 concentration, and cultured for 24 hours. Trypsin-EDTA was divided, and the cells were detached, and treated with a 5 μM DCFH-DA reagent. After 30 minutes, the fluorescence was measured at an excitation wavelength of 488 nm and an emission wavelength of 525 nm using a multi-microplate reader (Thermo scientific).
# [2] = tested on: HepG2 cells; assay: Inhibition of formation of oxidatively damaged adducts caused by alcohol (DCFH-DA assay); conditions: 50, 100, 250 μM 2 h, then ethanol at IC50 24 h
# Experimental: The DCFH-DA assay was generally described with reference to Evaluation Example 3.
# as §1, with “ethanol” for “nicotine”, “Then, trypsin-EDTA” for “Trypsin-EDTA”
# [3] = tested on: HepG2 cells; assay: Protective effect on hepatotoxicity caused by alcohol (MTT assay); conditions: 50, 100, 250 μM 2 h, then ethanol at IC50 24 h
# Experimental: The MTT assay was generally described with reference to Evaluation Example 2.
# Thereafter, the experimental groups and the control were treated with an aqueous solution of ethanol (50%) at an IC50 concentration, and cultured for 24 hours. After the medium was removed, the experimental groups and the control were treated with a 3-4,5 dimethylthiazol-2,5 diphenyltetrazolium bromide (MTT) reagent, and then cultured for 4 hours. Then, the medium was removed, and the experimental groups and the control were treated with a DMSO reagent, and measured for absorbance at a wavelength of 570 nm using a multi-microplate reader (Thermo scientific). Also, the cell viability was calculated using Equation 1.
# [4] = tested on: HepG2 cells; assay: Conversion rate of nicotine into cotinine (cotinine quantitative assay); conditions: HepG2 after 1 mM nicotine; 50, 100, 250 μM (mixture 50, 100 μM); 10-120 min
# Experimental: HepG2 (passage #99-100) cells kindly provided from the Korean Cell Line Bank were sub-cultured, divided into a 96 well plate, and then cultured under conditions of 5% CO2 and 37° C. until the cells reached 100% confluence, and the medium was removed. Thereafter, the HepG2 cells were cultured for a day in a medium containing 1 mM nicotine. […] Subsequently, the cultured cells were dividedly treated with trypsin-EDTA, and detached, and centrifuged to collect a cell pellet. The cell pellet was suspended in 100 μl of PBS, and homogenated for 30 seconds using an ultrasonicator. 100 μl of a 4M sodium acetate buffer (pH 4.7), 40 μl of 1.5M potassium cyanide, 40 μl of 0.4M chloramine T, and 200 μl of 78 mM barbituric acid (in acetone/water (50/50)) were sequentially added to the homogenated cells, mixed for 10 seconds, and then reacted at room temperature for 15 minutes. Then, 40 μl of 1M sodium metabisulfite was added to the reaction mixture to stop the reaction. Then, the reaction mixture was measured for absorbance at a wavelength of 490 nm using a multi-microplate reader (Thermo scientific), and the absorbance of the reaction mixture was quantified by comparison to the standard curve of a cotinine sample.
Compound,relative DCF fluorescence intensity (oxidatively damaged adducts by nicotine) vs nicotine-only control [1],relative DCF fluorescence intensity (oxidatively damaged adducts by alcohol) vs alcohol-only control [2],"absorbance (MTT, cell viability) vs alcohol-only control [3]",cotinine conversion rate vs nicotine-only control [4]
Oc1cc(O)cc(/C=C/c2ccc(O)cc2O)c1 [oxyresveratrol],relative DCF fluorescence intensity tended to decrease,relative DCF fluorescence intensity tended to decrease,absorbance increased as the concentration of the index material increased,cotinine conversion rate increased
Oc1ccc(C=Cc2cc(O)cc(O)c2)cc1 [resveratrol],–,–,absorbance increased as the concentration of the index material increased,cotinine conversion rate increased
